# ChEMBL document CHEMBL3886228, “Substituted benzopiperazines as CETP inhibitors” (2015)
# Molecular target: T1, Cholesteryl ester transfer protein (Homo sapiens, UniProt P11597)
# T1 sequence (P11597 whole entry): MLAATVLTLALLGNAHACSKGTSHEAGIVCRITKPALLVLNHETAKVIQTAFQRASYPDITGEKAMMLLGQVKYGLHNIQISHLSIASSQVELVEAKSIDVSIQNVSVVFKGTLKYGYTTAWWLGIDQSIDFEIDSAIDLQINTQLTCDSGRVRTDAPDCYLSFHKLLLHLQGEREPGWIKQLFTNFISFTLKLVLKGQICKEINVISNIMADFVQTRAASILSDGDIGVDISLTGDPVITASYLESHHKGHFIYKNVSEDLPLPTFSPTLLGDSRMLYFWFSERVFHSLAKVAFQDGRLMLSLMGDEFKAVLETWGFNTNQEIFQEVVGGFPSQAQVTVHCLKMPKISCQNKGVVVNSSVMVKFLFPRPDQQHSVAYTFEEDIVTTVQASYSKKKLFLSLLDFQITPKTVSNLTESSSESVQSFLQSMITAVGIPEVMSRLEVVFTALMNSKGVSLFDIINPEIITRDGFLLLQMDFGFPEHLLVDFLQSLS
# Test: Scintillation Proximity Assay (SPA): First, low density lipoprotein (LDL) (Meridian) was biotinylated by incubating LDL with biotin for 1 hour on ice, after which it was dialyzed to remove free biotin. Then compounds at varying concentrations were incubated with 15 nM CETP (reagent production group, In Vitro Pharmacology, MRL Rahway) and 50 ug/ml of the biotinylated LDL in 50 mM HEPES, 150 mM NaCl, pH 7.4, for 1 hour at 37° C. The reaction was started by adding 3H-cholesterol ester high density lipoprotein (HDL) (American Radiochemicals Corp) at a concentration of ~0.6 nM. The reaction proceeded for 2 hours at 37° C., after which time it was quenched by the addition of 12% acetic acid. PVT streptavadin-coated scintillation proximity beads, which had been brought to room temperature, were then added at a concentration of 4 mg/ml. The assay was then mixed and counted after one half hour in a Microbeta plate reader.
row,IC50 [nM],Compound
1,1430,O[C@H](CN1c2ccccc2N(Cc2cccc(OC(F)(F)F)c2)C[C@H]1c1cccc2ccccc12)C(F)(F)F
2,310,CCOc1cccc(CN2C[C@@H](c3cccc(C(F)(F)F)c3)N(C[C@@H](O)C(F)(F)F)c3ccccc32)n1
3,630,COc1cccc(CN2C[C@@H](c3cccc(C(F)(F)F)c3)N(C[C@@H](O)C(F)(F)F)c3ccccc32)n1

# More lines, now with the values behind:
row,Compound,IC50 [nM]
1,COc1cccnc1CN1C[C@@H](c2cccc(C(F)(F)F)c2)N(C[C@@H](O)C(F)(F)F)c2ccccc21,210
2,CC(C)Oc1cccc(CN2C[C@@H](c3cccc(C(F)(F)F)c3)N(C[C@@H](O)C(F)(F)F)c3ccccc32)n1,750
3,Cc1cc(CN2C[C@@H](c3cccc(C(F)(F)F)c3)N(C[C@@H](O)C(F)(F)F)c3ccccc32)cc(Cl)n1,67
